Assay results from patent US20240352046A1, “ECTONUCLEOTIDE PYROPHOSPHATASE-PHOSPHODIESTERASE-1 (ENPP1) INHIBITORS AND USES THEREOF” (1cBio, Inc., priority 2020, published 2024).

molecular target: ENPP-1 (Ectonucleotide Pyrophosphatase/Phosphodiesterase 1) (Homo sapiens (Human), UniProt P22413); experiment: ENPP1 inhibition assay (AMP Glo, cGAMP substrate); type: biochemical; settings: cGAMP 20 μM substrate, ENPP1 1 nM
Method: IC50 values of compounds against ENPP-1 (Ectonucleotide Pyrophosphatase/Phosphodiesterase 1) were determined at Integral BioSciences (India) using AMP Glo (Promega, Cat #V5011). Assay was performed in a 30 μL final volume in a white 96-well Half Area plate (Costar,Cat #3693). Dose response curve for the compounds were prepared in duplicates with starting conc. at 5 μM and a three-fold titration was performed. The reaction buffer consisted of 50 mM Tris (pH 8.0), 0.5 mM CaCl2), 1 μM ZnCl2, 250 mM NaCl and 0.1 mg/ml BSA. To the compound dilution, 15 μL of ENPP1 enzyme (R&D Systems; Cat #6136-EN-010) was added to each well (final conc. 1 nM) and the mix was pre-incubated for 15 min at RT. An equal volume (15 μL) containing cGAMP (Sigma, Cat #SML-1229) (final conc. 20 μM) was added to initiate the enzyme reaction and the reaction was incubated for 30 min at RT. The reaction was then stopped by heating at 90° C. for 3 minutes. 10 μl of reaction was then transferred to 384 well white, medium binding plates (Grenier, Cat #781075) to which 10 μl of AMP-Glo Reagent 1 was added and mixed well and incubated for 1 hour at 25° C. Following 60 min incubation, 20 μL of detection mixture was added to the enzyme reaction bringing the final volume to 40 μL. The reaction was further incubated for 60 min at RT after which the plates were read using BioTek Plate reader.
Analysis was done using the standard curve by non-linear regression, variable slope inhibitor curve fits (Graph-Pad Prism) and IC50's of compounds were determined wherever possible.

Sequence of ENPP-1 (Ectonucleotide Pyrophosphatase/Phosphodiesterase 1) (P22413 whole entry): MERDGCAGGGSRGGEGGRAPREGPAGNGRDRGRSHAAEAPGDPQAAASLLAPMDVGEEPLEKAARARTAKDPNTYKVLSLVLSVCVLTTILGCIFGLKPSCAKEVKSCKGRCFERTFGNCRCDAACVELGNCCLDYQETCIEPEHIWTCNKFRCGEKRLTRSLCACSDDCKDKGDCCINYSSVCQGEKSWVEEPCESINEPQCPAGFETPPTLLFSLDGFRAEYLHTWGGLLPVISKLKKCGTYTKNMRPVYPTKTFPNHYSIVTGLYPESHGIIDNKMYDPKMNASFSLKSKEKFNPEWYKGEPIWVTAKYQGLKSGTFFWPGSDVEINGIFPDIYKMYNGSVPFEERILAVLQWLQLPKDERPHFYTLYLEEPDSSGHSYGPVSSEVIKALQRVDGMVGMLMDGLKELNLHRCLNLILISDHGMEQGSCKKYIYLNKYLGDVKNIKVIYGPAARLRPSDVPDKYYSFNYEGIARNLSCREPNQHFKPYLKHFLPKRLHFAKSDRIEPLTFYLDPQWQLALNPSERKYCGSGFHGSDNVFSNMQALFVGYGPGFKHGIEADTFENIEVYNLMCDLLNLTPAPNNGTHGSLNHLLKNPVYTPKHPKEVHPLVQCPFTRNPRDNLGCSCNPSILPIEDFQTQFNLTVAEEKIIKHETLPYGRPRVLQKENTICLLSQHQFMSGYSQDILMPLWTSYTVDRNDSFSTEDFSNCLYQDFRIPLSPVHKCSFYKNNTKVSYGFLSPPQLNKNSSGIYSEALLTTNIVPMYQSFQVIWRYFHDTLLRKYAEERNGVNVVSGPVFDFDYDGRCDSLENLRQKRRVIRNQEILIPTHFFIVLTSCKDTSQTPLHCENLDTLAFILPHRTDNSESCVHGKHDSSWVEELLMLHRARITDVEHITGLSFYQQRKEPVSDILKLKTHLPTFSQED

| Compound | IC50 |
| --- | --- |
| COCCN(C1CC2(C1)CN(c1ncnn3c(Cl)cc(C)c13)C2)S(N)(=O)=O [Compound 1.122, N-(2-(7-chloro-5-methylpyrrolo[1,2-f][1,2,4]triazin-4-yl)-2-azaspiro[3.3]heptan-6-yl)-N-(2-methoxyethyl)sulfamamide] | 0.062 µM |
| Cn1cnc2c(F)c3ncnc(N4CC(CCNS(N)(=O)=O)C4)c3cc21 [Compound 1.32, 8-(3-(2-sulfamoylaminoethyl)azetidine-1-yl)-4-fluoro-1-methyl-1H-imidazo[4,5-g]quinazoline] | > 3 µM |
| Cc1cc(Cl)n2nc(C3CC3)nc(N3CC4(CC(N(C)S(N)(=O)=O)C4)C3)c12 [Compound 1.85] | > 2.39 µM |
| COc1cc2ncnc(N3CC(CCNS(N)(=O)=O)C3)c2cc1Br [Compound 1.41, 4-(3-(2-sulfamoylaminoethyl)azetidine-1-yl)-6-bromo-7-methoxyquinazoline] | 0.737 µM |
| Cc1c(Br)cn2ncnc(N3CC(CCNS(N)(=O)=O)C3)c12 [Compound 1.72, 4-(3-(2-sulfamoylaminoethyl)azetidine-1-yl)-6-bromo-5-methylpyrrolo[1,2-f][1,2,4]triazine] | > 3 µM |
| COc1cc(F)cc2c(N3CC(CCNS(N)(=O)=O)C3)ncnc12 [Compound 1.38] | > 3 µM |
| Cc1cc(Cl)n2ncnc(N3CC(CCN(C4CCC4)S(N)(=O)=O)C3)c12 [Compound 1.94, N-(2-(1-(7-chloro-5-methylpyrrolo[2,1-f][1,2,4]triazin-4-yl)azetidin-3-yl)ethyl)-N-cyclobutylsulfamamide] | > 3 µM |
| Cc1cc(Cl)n2ncnc(N3CC4(CC(N(CC(C)(C)C)S(N)(=O)=O)C4)C3)c12 [Compound 1.113, N-(2-(7-chloro-5-methylpyrrolo[2,1-f][1,2,4]triazin-4-yl)-2-azaspiro[3.3]heptan-6-yl)-N-neopentylsulfamamide] | 0.169 µM |
| CN(C1CC2(C1)CN(c1ncnc3[nH]cc(Cl)c13)C2)S(N)(=O)=O [Compound 1.124, N-(2-(5-chloro-7,7α-dihydro-4αH-pyrrolo[2,3-d]pyrimidin-4-yl)-2-azaspiro[3.3]heptan-6-yl)-N-methylsulfamamide] | 1.86 µM |
| Cc1cc(Cl)n2ncnc(N3CC4(CC(N(Cc5ccccc5)S(N)(=O)=O)C4)C3)c12 [Compound 1.112, N-benzyl-N-(2-(7-chloro-5-methylpyrrolo[2,1-f][1,2,4]triazin-4-yl)-2-azaspiro[3.3]heptan-6-yl)sulfamamide] | 0.141 µM |
| COc1cccc2c(N3CC(CCNS(N)(=O)=O)C3)c(C#N)cnc12 [Compound 1.9, (2-(1-(3-cyano-8-methoxyquinolin-4-yl)azetidin-3-yl)ethyl)aminisulfonamide] | 0.032 µM |
| COc1cc2c(N3CC(CCNS(N)(=O)=O)C3)ncnc2cn1 [Compound 1.3, (2-(1-(6-methoxypyrido[3,4-d]pyrimidin-4-yl)azetidin-3-yl)ethyl)aminisulfonamide] | 0.22 µM |
| COc1ccc2c(N3CC(CCCS(N)(=O)=O)C3)ncnc2c1 [Compound 1.56, 3-(1-(7-methoxyquinazolin-4-yl)azetidin-3-yl)propane-1-sulfonamide] | 0.085 µM |
| Cc1cc(Cl)n2ncnc(N3CC4(CC(N(C5CCCC5)S(N)(=O)=O)C4)C3)c12 [Compound 1.110, N-(2-(7-chloro-5-methylpyrrolo[2,1-f][1,2,4]triazin-4-yl)-2-azaspiro[3.3]heptan-6-yl)-N-cyclopentylsulfamamide] | 0.395 µM |
| COc1ccc2c(N3CC(CCNS(N)(=O)=O)C3)nc(-c3cccnc3)nc2c1 [Compound 1.44, 4-(3-(2-sulfamoylaminoethyl)azetidine-1-yl)-7-methoxy-2-(pyridin-3-yl)quinazoline] | > 3 µM |
| NS(=O)(=O)NCCC1CN(c2ncnc3cc4c(cc23)OCO4)C1 [Compound 1.18, 8-(3-(2-sulfamoylaminoethyl)azetidine-1-yl)-[1,3]dioxolo[4,5-g]quinazoline] | > 3 µM |
| COc1ccc2c(N3CC4(CC(N(C)S(N)(=O)=O)C4)C3)cnnc2c1 [Compound 1.87, N-(2-(7-methoxycinnolin-4-yl)-2-azaspiro[3.3]heptan-6-yl)-N-methylsulfamide] | 0.024 µM |
| COc1cc2nc(-c3ccc(F)cc3)nc(N3CC(CCNS(N)(=O)=O)C3)c2cc1OC [Compound 1.33, 4-(3-(2-sulfamoylaminoethyl)azetidine-1-yl)-2-(4-fluorophenyl)-6,7-dimethoxyquinazoline] | 0.248 µM |
| Cc1cc(Cl)n2ncnc(N3CC4(CC(N(Cc5ccc(C(F)(F)F)cc5)S(N)(=O)=O)C4)C3)c12 [Compound 1.109, N-(2-(7-chloro-5-methylpyrrolo[2,1-f][1,2,4]triazin-4-yl)-2-azaspiro[3.3]heptan-6-yl)-N-(4-(trifluoromethyl)benzyl)sulfamamide] | 0.189 µM |
| Cc1cc(Cl)n2ncnc(N3CC4(CC(N(CC5CCC5)S(N)(=O)=O)C4)C3)c12 [Compound 1.116, N-(2-(7-chloro-5-methylpyrrolo[2,1-f][1,2,4]triazin-4-yl)-2-azaspiro[3.3]heptan-6-yl)-N-(cyclobutylmethyl)sulfamide] | 0.069 µM |
| COc1cccc2c(N3CC(CCNS(N)(=O)=O)C3)ncnc12 [Compound 1.4, (2-(1-(8-methoxyquinazolin-4-yl)azetidin-3-yl)ethyl)aminosulfonamide] | 0.072 µM |
| COc1ccc2c(N3CC(CCNS(N)(=O)=O)C3)nc(C34CC5CC(CC(C5)C3)C4)nc2c1 [Compound 1.45, 2-(1-adamantyl)-7-methoxy-4-[3-[2-(sulfamoylamino)ethyl]azetidin-1-yl]quinazoline] | > 3 µM |
| CCc1nc(N2CC(CCNS(N)(=O)=O)C2)c2cc(OC)c(OC)cc2n1 [Compound 1.61, 2-ethyl-6,7-dimethoxy-4-[3-[2-(sulfamoylamino)ethyl]azetidin-1-yl]quinazoline] | 0.097 µM |
| Cc1ccn2ncnc(N3CC(CCB(O)O)C3)c12 [Compound 1.59, 2-(1-(5-methylpyrrolo[1,2-f][1,2,4]triazin-4-yl)azetidin-3-yl)ethylboronic acid] | > 3 µM |
| Cn1ccc2ncnc(N3CC(CCNS(N)(=O)=O)C3)c21 [Compound 1.14, 4-(3-(2-sulfamoylaminoethyl)azetidine-1-yl)-5-methyl-5H-pyrrolo[3,2-d]pyrimidine] | 0.12 µM |
| CCN(C1CC2(C1)CN(c1ncnn3c(Cl)cc(C)c13)C2)S(N)(=O)=O [Compound 1.98, N-(2-(7-chloro-5-methylpyrrolo[2,1-f][1,2,4]triazin-4-yl)-2-azaspiro[3.3]heptan-6-yl)-N-ethylsulfamamide] | 0.055 µM |
| Cn1ncc2c(N3CC4(CC(N(CC(F)F)S(N)(=O)=O)C4)C3)ncnc21 [Compound 1.121, N-(2,2-difluoroethyl)-N-(2-(1-methyl-1H-pyrazolo[3,4-d]pyrimidin-4-yl)-2-azaspiro[3.3]heptan-6-yl)sulfamamide] | 0.565 µM |
| COc1cc2ncnc(N3CC(CNS(N)(=O)=O)C3)c2cc1OC [Compound 1.10, N-((1-(6,7-dimethoxyquinazolin-4-yl)azetidin-3-yl)methyl) aminisulfonamide] | 0.028 µM |
| COc1cc2ncnc(N3CC(CCNS(N)(=O)=O)C3)c2cc1C [Compound 1.54, N-(2-[1-(7-methoxy-6-methylquinazolin-4-yl)azetidin-3-yl]ethyl)sulfuric diamide] | 1.68 µM |
